Results on 13 compounds are retold here after patent publication US20260223850A1, “SUBSTITUTED PYRROLIDONE COMPOUND, PREPARATION METHOD THEREFOR, COMPOSITION AND APPLICATION THEREOF” (QINGDAO KINGAGROOT CHEMICAL COMPOUND CO., LTD., priority 2023, published 2026).

One data set relates to Echinochloa phyllopogon. Description: Seedling stage sealing experiment for water-seeding. The format is in vivo. The conditions noted are these: 120 g a.i./ha, 15 days, fresh weight control rate. The gist of the method:
(§1)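 Water-seeding seedling stage test: broadcast seeds, cover with soil, keep bowls moist in a water box; spray compound (acetone, diluted in water) at 120, 60, 30, 15 g a.i./ha; culture 15 d in greenhouse; grade 0–9 by fresh-weight growth control; mean of 3.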

The subject of the next data set is Rice sheath blight. The data set is described as follows: Fungicidal activity assay, petri dish method. The format is cell-based. As to conditions: 400 ppm, 25° C., after 4 days. The protocol:
(§2) Petri dish method: The drug agent was dissolved with acetone, diluted with sterile water, and set to different levels of mass concentrations according to its activity. Under aseptic operation conditions, the pre-melted sterilized medium was quantitatively added into sterilized flasks according to the test treatment. The drug solutions were quantitatively aspirated in order from low to high concentrations, added into the above-mentioned flasks, and shaken well, respectively. Next, equal amounts of the solution were poured into 3 petri dishes with a diameter of 6 cm to prepare drug-containing plates with corresponding concentrations. In the test, a treatment without drugs was set up as the blank control and each treatment was repeated 3 times. A fungus cake was cut out from the edge of the colony of the cultured pathogens using a sterile hole puncher with a diameter of 3 mm under sterile conditions. The fungus cake was inoculated into the center of a drug-containing plate using an inoculator, with the mycelia facing up, covered with a plate cover, and cultured in an incubator at 25° C. The growth of pathogen mycelia was investigated according to the fungal growth in the blank control petri dishes after 4 days. The diameters of the colonies were measured with a caliper in millimeters (mm). Each colony was vertically measured for diameters once each by the cross method and then averaged. Based on the investigation results, the mycelium growth inhibition rate of each treatment concentration on the test target fungi was calculated in accordance with Equation (1) and (2). The unit was percentage (%).
(§3) [formula] • wherein: D—Increase of colony diameter; D1—Diameter of colony; D2—Diameter of fungus cake.
(§4) [formula] • wherein: I—Mycelium growth inhibition rate; D0—Increase of colony diameter of blank control; Dt—Increase of colony diameter of drug treatment.

The next data set relates to Tomato gray mold. Description: Fungicidal activity assay, petri dish method. The format is cell-based. The conditions noted are these: 25° C., after 4 days. The protocol:
as §2, §3, §4

For the next data set, the system named is Huaidao (rice cultivar). Description: Seedling stage sealing experiment for water-seeding (crop safety). The format is in vivo. The conditions noted are these: 120 g a.i./ha, 15 days, fresh weight control rate; for Huaidao (rice cultivar) plant damage level: seedling stage sealing. The gist of the method:
as §1

The next data set has as its system Spodoptera frugiperda. The data set is described as follows: Insecticidal activity assay, spraying method. The format is in vivo. As to conditions: 2nd instar, spray, 48 h after drug application; for Spodoptera frugiperda/% (mortality): 500 ppm. The protocol: (§5) Spraying method: the technical material was weighed and dissolved with acetone, and the drug liquid was diluted with distilled water to different concentrations. The 2nd instar Spodoptera frugiperda test insects or the 3rd instar Mythimna separata test insects reared indoors with consistent physiological conditions were selected. Ten test insects were picked into each petri dish. Two 2 cm-long corn leaves were placed in the petri dish and sprayed using a spray tower. Each dosage was repeated 3 times, with acetone of the corresponding concentration as a control. After drug application, the insects were transferred to and reared in a condition where the temperature was 25° C. and the humidity was 60%. The results were investigated 48 h after drug application and the death number per treatment was collected, respectively. The mortality was calculated in accordance with the following equation: Mortality (%)=(Number of dead insects/Number of test insects)×100.

A further data set deals with Mythimna separata. The data set is described as follows: Insecticidal activity assay, spraying method. Type of data set: in vivo. The conditions noted are these: 3rd instar, spray, 48 h after drug application. The protocol: as §5
For a further data set, the system named is Echinochloa crusgalli. Description: Seedling stage sealing experiment for water-seeding. The format is in vivo. As to conditions: 120 g a.i./ha, 15 days, fresh weight control rate.
The subject of a further data set is Digitaria sanguinalis. The description is as above. The format is in vivo. As to conditions: 120 g a.i./ha, seedling stage sealing, 15 days, fresh weight control rate. The gist of the method: as §1
For another data set, the system named is Leptochloa chinensis. The data set is described as above. Type of data set: in vivo. The conditions noted are these: 120 g a.i./ha, 15 days, fresh weight control rate. The gist of the method:
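Seeds sown in soil-filled bowls kept moist in water-filled boxes; compound in acetone diluted with water and spray-applied at 120, 60, 30 and 15 g a.i./ha, triplicate. After 15 days in greenhouse, fresh-weight growth control scored on a 0–9 scale (9 = dead, 0 = no effect), averaged.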

Another data set has as its system Apple ring rot. Description: Fungicidal activity assay, petri dish method. Type of data set: cell-based. The conditions noted are these: 400 ppm, 25° C., after 4 days. The protocol: as §2, §3, §4
The next data set has as its system weeds. The data set is described as follows: Activity assay of compositions, post-emergence spray treatment of stems and leaves (F). Type of data set: in vivo. As to conditions: Paspalum distichum, F. The protocol:
The required active ingredient B was purchased from a reagent company or a technical material manufacturer or synthesized by a conventional method. The technical materials were all dissolved with acetone solvents and diluted with aqueous solution of 0.1% Tween® 80 emulsifier, which should be used immediately after dilution.
Weeds were cultivated by the pot culture method. […] Weed seeds with plump and uniform grains were selected, soaked in lukewarm water at 25° C. for 6 hours, and accelerated to germinate in a 28° C. biochemical incubator (in darkness). The weed seeds that had just germinated were evenly placed on the surface of the soil and then covered with 0.5-1 cm soil according to the sizes of seeds.
The weeds were cultured in a controllable sunlight greenhouse at 20-30° C., in natural light and with relative humidity of 57%-72%.
Each treatment was repeated 4 times. Three pots with 20 weed seeds sowed per pot were treated each time.
The drug was applied once in total in the experiment. When at 1.5-2 leaf stage, the weeds were thinned out to maintain 10 strains per pot. Thirty strains were kept in each treatment and then continued to be cultured until the 3-4 leaf stage for further treatment.
The well-cultured test materials were evenly placed on a 0.5 m^2 platform and foliage-sprayed by the 3WP-2000-type walking spray tower at a dosage of […] and a spray pressure of 0.3 MPa. After all the drug solution was sprayed, the air valve was closed. And 30 seconds later, the door of the spray tower was opened, and the nutritional bowl was taken out. Next, the air valve was opened, and the spray tube was cleaned by spraying 50 mL of water. The test materials were transferred to and routinely cultured in a greenhouse after the treatment.
A method for investigating absolute numbers was employed. The whole seedlings of the survival weeds were cut along the soil surface with a blade, and the fresh weight of the weeds was weighed by an analytical balance. For dead weeds, the fresh weight thereof was considered zero.
The investigation was performed 21 days after the treatment for once in total.
The theoretical fresh weight inhibition rate of a mixed combination of each treatment was calculated by the Gowing method (E0═X+Y−X*Y/100), then compared with the measured inhibition rate (E) to evaluate the type of the combined action of the combination of the two on weeds. The combined action was a synergistic effect when E−E0 >10%; an antagonistic effect when E−E0<−10%; an additional effect when −10%≤E−E0≤10%. An optimal ratio was determined according to factors such as actual control effects, characteristics of herbicides, balance of the formulation, etc. In the formula, X represents the fresh weight inhibition rate of the active ingredient A in a dosage of P; Y represents the fresh weight inhibition rate of the active ingredient B in a dosage of Q. The statistical results are shown in Table 6.

The mark [1] stands for this setting: spray, seedling stage sealing for water-seeding.

On to `C=CCn1ncc(NC(=O)[C@H]2C(=O)N(C)C[C@@H]2c2cc(C)cc(C)c2)c1Cl` [270′], for which the “Echinochloa phyllopogon activity level (growth control rate)” value (from here on “Echinochloa phyllopogon activity level”) with Echinochloa phyllopogon (seedling stage sealing) was 6 (Level 6: growth control rate greater than or equal to 70% and less than 80%). Moreover, the “Rice sheath blight/% (mycelium growth inhibition rate)” value in the data set on Rice sheath blight was 61%. The “Tomato gray mold/% (mycelium growth inhibition rate)” value in the data set with Tomato gray mold (400 ppm) is 51%. In addition, the “Huaidao (rice cultivar) plant damage level” value in the data set on Huaidao (rice cultivar) was 0. Also, the “Spodoptera frugiperda/% (mortality)” value in the data set on Spodoptera frugiperda is 55%. Besides, the “Mythimna separata/% (mortality)” value with Mythimna separata (500 ppm) is listed as 75%.
In the case of `Cc1cc(C)cc([C@H]2CN(C)C(=O)[C@@H]2C(=O)Nc2cnn(C)c2C2CC2)c1` [277′], the “Echinochloa crusgalli activity level (growth control rate)” value (“Echinochloa crusgalli activity level” below) in the data set on Echinochloa crusgalli (seedling stage sealing) is recorded as 9. In the data set on Digitaria sanguinalis, the “Digitaria sanguinalis activity level (growth control rate)” value was 6 (Level 6: growth control rate greater than or equal to 70% and less than 80%). Also, the “Leptochloa chinensis activity level (growth control rate)” value with Leptochloa chinensis was found to be 9. Moreover, the “Mythimna separata/% (mortality)” value in the data set with Mythimna separata (100 ppm) is given as 95%.
On to `Cc1cc(C)cc([C@H]2CN(C)C(=O)[C@@H]2C(=O)Nc2cnn(C)c2-c2ccc(Cl)cc2)c1` [281′], for which the “Mythimna separata/% (mortality)” value in the data set on Mythimna separata (500 ppm) was found to be 60%.
Broadly, the mortality is the percentage killed. For the compound `Cc1cc([C@H]2CN(C)C(=O)[C@@H]2C(=O)Nc2cnn(C)c2Cl)nn1C(F)F` [340′], the mortality at 500 ppm with Spodoptera frugiperda (Spodoptera frugiperda) stood at 87%; in the data set on Mythimna separata (Mythimna separata, 500 ppm) it was 100%.
Regarding `CN1C[C@H](c2cc3ccccc3o2)[C@@H](C(=O)Nc2cnn(C)c2Cl)C1=O` [356′], in the data set on Echinochloa crusgalli (seedling stage sealing), the “Echinochloa crusgalli activity level” value is 5 (Level 5: growth control rate greater than or equal to 50% and less than 70%). In the data set with Apple ring rot, the “Apple ring rot/% (mycelium growth inhibition rate)” value turned out to be 83%. In addition, the “Tomato gray mold/% (mycelium growth inhibition rate)” value in the data set on Tomato gray mold (400 ppm) is recorded as 57%.
Take `CCn1ncc(NC(=O)[C@H]2C(=O)N(C)C[C@@H]2c2cc(C)cc(C)c2)c1Cl` [418′]: in the data set on Echinochloa phyllopogon (seedling stage sealing), the “Echinochloa phyllopogon activity level” value is listed as 9. Also, the “Echinochloa crusgalli activity level” value in the data set with Echinochloa crusgalli (seedling stage sealing) is reported as 9. The “Tomato gray mold/% (mycelium growth inhibition rate)” value with Tomato gray mold (500 ppm) is given as 96%.
In the case of `C#CCn1ncc(NC(=O)[C@H]2C(=O)N(C)C[C@@H]2c2cc(C)cc(C)c2)c1Cl` [420′], the “Echinochloa phyllopogon activity level” value in the data set on Echinochloa phyllopogon (seedling stage sealing) is 9. Also, the “Echinochloa crusgalli activity level” value in the data set on Echinochloa crusgalli (seedling stage sealing) stood at 9. The “Huaidao (rice cultivar) plant damage level” value in the data set with Huaidao (rice cultivar) is on record as 0. In addition, the “Spodoptera frugiperda/% (mortality)” value in the data set on Spodoptera frugiperda is on record as 75%. For the same compound, the “Mythimna separata/% (mortality)” value in the data set on Mythimna separata (500 ppm) came out at 90%.
In the case of `Cc1cc(C)cc([C@H]2CN(C)C(=O)[C@@H]2C(=O)Nc2cnn(-c3ccccc3)c2Cl)c1` [421′], the “Echinochloa crusgalli activity level” value in the data set with Echinochloa crusgalli (seedling stage sealing) is reported as 9. Moreover, in the data set on Huaidao (rice cultivar), the “Huaidao (rice cultivar) plant damage level” value amounted to 0. Moreover, the “Spodoptera frugiperda/% (mortality)” value in the data set on Spodoptera frugiperda turned out to be 65%. Moreover, the “Mythimna separata/% (mortality)” value in the data set on Mythimna separata (500 ppm) came out at 75%.
Consider `Cc1cc(C)cc([C@H]2CN(C)C(=O)[C@@H]2C(=O)Nc2cnn(C(=O)OC(C)(C)C)c2Cl)c1` [491′], for which the “Spodoptera frugiperda/% (mortality)” value with Spodoptera frugiperda was determined as 60%. In addition, the “Mythimna separata/% (mortality)” value in the data set on Mythimna separata (500 ppm) is 70%.
The matching figures for `Cc1cc(C)cc([C@H]2CN(C)C(=O)[C@@H]2C(=O)Nc2cnn(C)c2C=O)c1` [500′]: 60% and 70%.
Take `Cc1cc(Cl)cc([C@H]2CN(C)C(=O)[C@@H]2C(=O)Nc2cnn(C)c2Cl)c1` [504′]: in the data set on Echinochloa phyllopogon (setting [1]), the “Echinochloa phyllopogon activity level” value was 9. The “Echinochloa crusgalli activity level” value in the data set on Echinochloa crusgalli (setting [1]) stood at 9. In addition, the “Apple ring rot/% (mycelium growth inhibition rate)” value in the data set on Apple ring rot was determined as 80%. In addition, in the data set on Rice sheath blight, the “Rice sheath blight/% (mycelium growth inhibition rate)” value is 83%. In the data set with Huaidao (rice cultivar) (setting [1]), the “Huaidao (rice cultivar) plant damage level (growth control rate)” value is 0.
Take `Cc1ccc([C@H]2CN(C)C(=O)[C@@H]2C(=O)Nc2cnn(C)c2Cl)o1` [522′]: in the data set with Spodoptera frugiperda, the “Spodoptera frugiperda/% (mortality)” value is 60%. Also, the “Mythimna separata/% (mortality)” value in the data set with Mythimna separata (500 ppm) is listed as 70%.
For `CCC(=O)Nc1ccc(Cl)c(Cl)c1` [Propanil, propanil, reference compound], the “Control effect of B applied alone in a corresponding dose (%)” value in the data set on weeds (B 300 g a.i./ha) was 48.3%; with weeds (B 600 g a.i./ha), 56.1%.
